From patent publication US20250059188A1, “ARYLSULPHONAMIDE COMPOUNDS” (Anaxis Pharma Pty Ltd, priority 2021, published 2025)

Key:
human MLKL (full length) = human MLKL (full length) (Homo sapiens (Human), UniProt Q8NB16); assay: KINOMEscan binding assay, human MLKL (full length); conditions: equilibrium dissociation constant
In short: (§1)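 KINOMEscan competition binding using kinase-tagged T7 phage or HEK-293-produced DNA-tagged protein captured on ligand beads, with eluted protein quantified by qPCR. Compounds were run as an 11-point 3-fold series, top 30,000 nM, in 1% DMSO. Kd was fitted with the Hill equation, slope fixed at −1.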

human RIPK1 = human RIPK1 (Homo sapiens (Human), UniProt Q13546); assay: KINOMEscan binding assay, human RIPK1; conditions: equilibrium dissociation constant
human RIPK1, sequence (Q13546 whole entry): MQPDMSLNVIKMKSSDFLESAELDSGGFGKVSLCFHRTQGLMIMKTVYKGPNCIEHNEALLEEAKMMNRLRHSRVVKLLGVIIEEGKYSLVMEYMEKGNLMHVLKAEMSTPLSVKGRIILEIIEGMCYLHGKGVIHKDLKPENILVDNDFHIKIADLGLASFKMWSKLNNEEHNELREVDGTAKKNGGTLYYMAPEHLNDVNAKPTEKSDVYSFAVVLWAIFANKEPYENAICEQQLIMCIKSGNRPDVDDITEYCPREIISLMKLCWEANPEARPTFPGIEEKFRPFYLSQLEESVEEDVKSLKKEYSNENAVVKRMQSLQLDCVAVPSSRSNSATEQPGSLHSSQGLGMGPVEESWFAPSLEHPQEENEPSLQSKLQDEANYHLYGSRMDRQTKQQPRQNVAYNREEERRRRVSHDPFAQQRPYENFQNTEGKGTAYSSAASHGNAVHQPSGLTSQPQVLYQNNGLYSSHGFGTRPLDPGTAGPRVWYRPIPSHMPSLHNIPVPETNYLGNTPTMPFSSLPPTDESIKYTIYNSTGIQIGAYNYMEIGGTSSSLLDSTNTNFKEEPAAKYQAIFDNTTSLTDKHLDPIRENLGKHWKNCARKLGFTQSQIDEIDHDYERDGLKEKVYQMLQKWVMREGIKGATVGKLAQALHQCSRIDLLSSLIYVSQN
In short: as §1

human RIPK3 = human RIPK3 (Homo sapiens (Human), UniProt Q9Y572); assay: KINOMEscan binding assay, human RIPK3; conditions: equilibrium dissociation constant
human RIPK3, sequence (Q9Y572 whole entry): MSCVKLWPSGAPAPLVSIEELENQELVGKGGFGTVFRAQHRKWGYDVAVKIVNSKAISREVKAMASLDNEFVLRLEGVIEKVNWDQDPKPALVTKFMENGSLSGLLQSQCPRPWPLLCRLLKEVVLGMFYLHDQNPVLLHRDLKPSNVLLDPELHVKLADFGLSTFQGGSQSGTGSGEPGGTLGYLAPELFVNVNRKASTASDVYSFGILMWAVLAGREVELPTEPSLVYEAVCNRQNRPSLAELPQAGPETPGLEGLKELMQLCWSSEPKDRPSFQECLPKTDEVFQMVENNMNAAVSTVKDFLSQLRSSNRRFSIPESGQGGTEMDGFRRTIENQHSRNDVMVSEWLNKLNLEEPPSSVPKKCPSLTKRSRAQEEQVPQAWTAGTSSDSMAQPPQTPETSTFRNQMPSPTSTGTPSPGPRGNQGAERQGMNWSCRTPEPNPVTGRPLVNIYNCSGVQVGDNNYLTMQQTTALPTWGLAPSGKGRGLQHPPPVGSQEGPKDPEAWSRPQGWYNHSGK
In short: as §1

[1] = system: Immortalised Mouse Dermal Fibroblasts (MDFs); assay: Inhibition of TSI induced necroptosis in mouse dermal fibroblasts (CellTitre-Glo); conditions: Mus musculus, Fibroblast, 3 h, MDF cells, TSI cocktail (TNF, Smac mimetic, IDN-6556), read-out: Inhibition of TSI-induced necroptosis (IC50 cell-based assay) in MDF
Experimental: Cellular Assay: Screening Compounds for Inhibition of TSI Induced Necroptosis in, 384 well plate format. • Cell Line ID: Immortalised Mouse Dermal Fibroblasts (MDFs). • Cell Concentration (cells/well): Final cell density is 2200 cells per well. • Cell growth medium: DMEM medium+7.4% Fetal Bovine Serum (FBS). Cells are cultured in Corning 150 cm^2 tissue culture flasks with vented caps at 37° C./10% CO2. • Incubation: Plates were incubated for 30 minutes following addition of compounds and then 3 hours incubation with death stimuli (TSI cocktail) at 37° C./10% CO2 in a humidified incubator. • Compound concentration: 36 μM starting concentration, 1:3 dilution, 10 point • DMSO final concentration (% v/v): 0.3%. Compounds in TSI Cocktail (T: TNF; S: Smac Mimetic; I: IDN-6556) and their Final Concentrations: • rhTNF (100 ng/ml) • Compound A (500 nM)—Smac mimetic, Tetralogic and SYNthesis med chem • IDN-6556 (10 μM)—Selleckchem (S7775)
The cellular assay was carried out according to the following steps: • 1. Each well was prepared by sequential addition of: • a. 40 μL of cell suspension (5.5×10^4 cells/mL) was added to each well to provide a final cell concentration of 2,200 cells per well. • b. After 24 hours, DMSO (control; columns 1-2 and 23-24) or compound in DMSO—addition was performed using acoustic transfer of nL volumes of stock compound to give final test concentrations of 36, 12, 4, 1.3, 0.44, 0.148, 0.049, 0.016, 0.005 and 0.002 μM. All wells were backfilled with DMSO to a final total volume in the well of 100 nL. • c. Following compound/DMSO addition in step (b), Plates were incubated for 30 minutes at 37° C./10% CO2 in a humidified incubator and then 10 μL of 5×TSI cocktail (except to positive controls; columns 2 and 24) was added to each well. • 2. After 3 hours, plate was removed from the 37° C. incubator and equilibrated to room temperature for 15 minutes. • 3. 15 μL of room temperature CellTitre-Glo2™ (Promega™) was added to each well. • 4. Shook plates for 2 minutes (˜600 rpm) and incubated at room temperature for 15 minutes to allow signal to stabilise. • 5. Read luminescence readout on a plate reader.
Percent viability was calculated for each compound according to equation (2): […]
10 point titration curves were fitted with the 4 parameter logistic nonlinear regression model and the IC50 reported reflect the inflection point of the curve for curve fitting.
• Assay involving the TSI cocktail (T: TNF; S: Smac mimetic; I: IDN-6556): TSI treatment ensures that cells specifically undergo necroptotic cell death. TNF activates the TNF receptor, Smac mimetic directs the signal away from proinflammatory signaling and toward the RIPK1/RIPK3-mediated cell death pathways, and IDN-6556 (Caspase inhibitor) ensures that the apoptotic response is blocked leaving only the programmed necrosis response. The compounds' activity (solution in DMSO) tested in this TSI-induced assay was evaluated by determining the number of viable cells in culture by measuring the amount of ATP present as measured by CelltiterGlo.

[2] = system: U937 human histiocytic leukemia cell line; assay: Inhibition of TSQ induced necroptosis in U937 cells (CellTitre-Glo); conditions: Homo sapiens, U-937, TSQ cocktail (TNF, Smac mimetic, Q-VD-OPh), 48 hours, read-out: Inhibition of TSQ-induced necroptosis (IC50 cell-based assay)
In short: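 Necroptosis was induced with TNF-Fc (100 ng/ml), Smac mimetic (500 nM) and Q-VD-OPh (10 μM) in 20000 U937 cells/well exposed to a 10-point, 3-fold compound series (top 36 μM, 0.3% DMSO). ATP luminescence read after 48 h; 4-parameter fit gave IC50. Parallel TSQ-free wells assessed compound toxicity.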

U937 cells = assay: Counter screen: U937 cell viability without TSQ cocktail (off-target effect); set-up: species or system human; conditions: Homo sapiens, U-937, compound without TSQ cocktail, read-out: Off-target effect (IC50 cell-based assay)
In short: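 Off-target viability counter screen: compounds titrated 36 μM down 1:3 over 10 points (0.3% DMSO) on 20,000 U937 cells/well, no TNF/Smac mimetic/Q-VD-OPh added, 48 h incubation. ATP-based CellTiter-Glo luminescence, four-parameter logistic IC50.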

human MLKL (full length), sequence (Q8NB16 whole entry): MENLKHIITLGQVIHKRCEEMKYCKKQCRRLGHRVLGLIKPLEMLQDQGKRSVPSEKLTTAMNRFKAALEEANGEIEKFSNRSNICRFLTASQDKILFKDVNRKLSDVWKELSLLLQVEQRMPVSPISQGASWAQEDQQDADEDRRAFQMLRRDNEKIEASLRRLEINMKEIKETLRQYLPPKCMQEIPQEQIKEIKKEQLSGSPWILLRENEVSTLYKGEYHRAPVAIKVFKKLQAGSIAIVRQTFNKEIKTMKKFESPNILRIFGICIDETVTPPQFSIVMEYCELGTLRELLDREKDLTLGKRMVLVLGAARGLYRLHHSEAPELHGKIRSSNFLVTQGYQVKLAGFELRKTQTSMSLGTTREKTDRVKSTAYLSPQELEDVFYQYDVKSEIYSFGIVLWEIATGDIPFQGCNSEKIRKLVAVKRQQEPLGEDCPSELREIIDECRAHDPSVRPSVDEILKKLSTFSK

Kd (human MLKL (full length))	Kd (human RIPK1)	Kd (human RIPK3)	Compound	IC50 [1]	IC50 [2]	IC50 (U937 cells)
< 0.001 µM	> 10 µM	> 10 µM	COc1ccc(-c2cnc(N)c3c(-c4ccc(NS(=O)(=O)C(F)F)c(O[C@@H](C)c5ccc(F)cc5)c4)nn(C)c23)cn1 [Compound 28, (S)-N-(4-(4-amino-7-(6-methoxypyridin-3-yl)-1-methyl-1H-pyrazolo[4,3-c]pyridin-3-yl)-2-(1-(4-fluorophenyl)ethoxy)phenyl)-1,1-difluoromethanesulfonamide]	–	0.01 to 1 µM	> 10 µM
< 0.001 µM	> 10 µM	> 10 µM	C[C@H](Oc1cc(-c2nn(C)c3c(-c4cnn(C(F)F)c4)cnc(N)c23)ccc1NS(=O)(=O)C(F)F)c1ccc(F)cc1 [Compound 123, (S)-N-(4-(4-amino-7-(1-(difluoromethyl)-1H-pyrazol-4-yl)-1-methyl-1H-pyrazolo[4,3-c]pyridin-3-yl)-2-(1-(4-fluorophenyl)ethoxy)phenyl)-1,1-difluoromethanesulfonamide]	–	< 0.01 µM	> 10 µM
< 0.001 µM	> 10 µM	> 10 µM	C[C@H](Oc1cc(-c2nn(C)c3c(C4=CCCN(C)C4)cnc(N)c23)ccc1NS(=O)(=O)C(F)F)c1ccc(F)cc1 [Compound 55, (S)—N-(4-(4-amino-1-methyl-7-(1-methyl-1,2,5,6-tetrahydropyridin-3-yl)-1H-pyrazolo[4,3-c]pyridin-3-yl)-2-(1-(4-fluorophenyl)ethoxy)phenyl)-1,1-difluoromethanesulfonamide]	–	1 to 10 µM	> 10 µM
< 0.001 µM	> 10 µM	> 10 µM	C[C@H](Oc1cc(-c2nn(C)c3c(-c4ccc5c(c4)n(C)c(=O)n5C)cnc(N)c23)ccc1NS(=O)(=O)C(F)F)c1ccc(F)cc1 [Compound 161, (S)-N-(4-(4-amino-7-(1,3-dimethyl-2-oxo-2,3-dihydro-1H-benzo[d]imidazol-5-yl)-1-methyl-1H-pyrazolo[4,3-c]pyridin-3-yl)-2-(1-(4-fluorophenyl)ethoxy)phenyl)-1,1-difluoromethanesulfonamide]	–	1 to 10 µM	> 10 µM
0.001 to 0.1 µM	> 10 µM	> 10 µM	C[C@H](Oc1cc(-c2nn(C)c3c(N4CCOCC4)cnc(N)c23)ccc1NS(=O)(=O)C(F)F)c1ccc(F)cc1 [Compound 141, N-{4-[4-amino-1-methyl-7-(morpholin-4-yl)-1H-pyrazolo[4,3-c]pyridin-3-yl]-2-[(1S)-1-(4-fluorophenyl)ethoxy]phenyl}-1,1-difluoromethanesulfonamide]	–	0.01 to 1 µM	> 10 µM

More lines, now with the values behind:

Compound	Kd (human MLKL (full length))	Kd (human RIPK1)	Kd (human RIPK3)	IC50 [1]	IC50 [2]	IC50 (U937 cells)
Cn1nc(-c2ccc(NS(=O)(=O)C(F)F)c(OCC3CCCCC3)c2)c2c(N)ncc(-c3cnn(C4CCOCC4)c3)c21 [Compound 150, N-(4-(4-amino-1-methyl-7-(1-(tetrahydro-2H-pyran-4-yl)-1H-pyrazol-4-yl)-1H-pyrazolo[4,3-c]pyridin-3-yl)-2-(cyclohexylmethoxy)phenyl)-1,1-difluoromethanesulfonamide]	< 0.001 µM	> 10 µM	> 10 µM	1 to 10 µM	–	–
C[C@H](Oc1cc(-c2nn(C)c3c(-c4cnn(C5CCC(N(C)C)C5)c4)cnc(N)c23)ccc1NS(=O)(=O)C(F)F)c1ccc(F)cc1 (stereo partly drawn) [Compound 168, N-(4-(4-amino-7-(1-(3-(dimethylamino)cyclopentyl)-1H-pyrazol-4-yl)-1-methyl-1H-pyrazolo[4,3-c]pyridin-3-yl)-2-((S)-1-(4-fluorophenyl)ethoxy)phenyl)-1,1-difluoromethanesulfonamide]	–	–	–	0.1 to 1 µM	0.01 to 1 µM	> 10 µM
C[C@H](Oc1cc(-c2nn(C)c3c(-c4cnn(C5CCNC(C(F)(F)F)C5)c4)cnc(N)c23)ccc1NS(=O)(=O)C(F)F)c1ccc(F)cc1 (stereo partly drawn) [Compound 149, N-(4-(4-amino-1-methyl-7-(1-(2-(trifluoromethyl)piperidin-4-yl)-1H-pyrazol-4-yl)-1H-pyrazolo[4,3-c]pyridin-3-yl)-2-((S)-1-(4-fluorophenyl)ethoxy)phenyl)-1,1-difluoromethanesulfonamide]	–	–	–	0.1 to 1 µM	< 0.01 µM	> 10 µM
CCS(=O)(=O)Nc1ccc(-c2coc3c(-c4cnn(C5CCOCC5)c4)cnc(N)c23)cc1OCc1ccc(F)cc1 [Compound 3, N-(4-(4-amino-7-(1-(tetrahydro-2H-pyran-4-yl)-1H-pyrazol-4-yl)furo[3,2-c]pyridin-3-yl)-2-((4-fluorobenzyl)oxy)phenyl)ethanesulfonamide]	< 0.001 µM	> 10 µM	> 10 µM	1 to 10 µM	–	–
[2H]C([2H])([2H])N1CCC(n2cc(-c3cnc(N)c4c(-c5ccc(NS(=O)(=O)C(F)F)c(O[C@@H](C)c6ccc(F)cc6)c5)nn(C)c34)cn2)CC1(C)C (stereo partly drawn) [Compound 152, N-(4-(4-amino-7-(1-(2,2-dimethyl-1-(methyl-d3)piperidin-4-yl)-1H-pyrazol-4-yl)-1-methyl-1H-pyrazolo[4,3-c]pyridin-3-yl)-2-((S)-1-(4-fluorophenyl)ethoxy)phenyl)-1,1-difluoromethanesulfonamide]	–	–	–	0.1 to 1 µM	< 0.01 µM	> 10 µM
C[C@H](Oc1cc(-c2nn(C)c3c(-c4cnn(C5CN(CC(F)(F)F)C5)c4)cnc(N)c23)ccc1NS(=O)(=O)C(F)F)c1ccc(F)cc1 [Compound 77, (S)-N-(4-(4-amino-1-methyl-7-(1-(1-(2,2,2-trifluoroethyl)azetidin-3-yl)-1H-pyrazol-4-yl)-1H-pyrazolo[4,3-c]pyridin-3-yl)-2-(1-(4-fluorophenyl)ethoxy)phenyl)-1,1-difluoromethanesulfonamide]	< 0.001 µM	> 10 µM	> 10 µM	–	< 0.01 µM	> 10 µM
C[C@H](Oc1cc(-c2nn(C)c3c(-c4ccnc(C(F)(F)F)c4)cnc(N)c23)ccc1NS(=O)(=O)C(F)F)c1ccc(F)cc1 [Compound 23, (S)-N-(4-(4-amino-1-methyl-7-(2-(trifluoromethyl)pyridin-4-yl)-1H-pyrazolo[4,3-c]pyridin-3-yl)-2-(1-(4-fluorophenyl)ethoxy)phenyl)-1,1-difluoromethanesulfonamide]	0.001 to 0.1 µM	> 10 µM	> 10 µM	–	1 to 10 µM	> 10 µM
C[C@H](Oc1cc(-c2cnn3c(-c4cnn(C)c4)cnc(N)c23)ccc1NS(=O)(=O)C(F)F)c1ccc(F)cc1 [Compound 35, (S)-N-(4-(4-amino-7-(1-methyl-1H-pyrazol-4-yl)pyrazolo[1,5-a]pyrazin-3-yl)-2-(1-(4-fluorophenyl)ethoxy)phenyl)-1,1-difluoromethanesulfonamide]	< 0.001 µM	> 10 µM	> 10 µM	–	0.01 to 1 µM	> 10 µM
